Legend:
S. sanguinis = test: Minimum Inhibitory Concentration, fivefold dilution, no visual growth; type: cell-based; details: 24 hours at 35±2° C.
Experimental: (§1) Streak plates and characterization by gram-staining were done. MRSA and PA01 were grown on Tryptic Soy agar (TSA) plates and S. sanguinis on horse blood plates for up to 24 hours whereas P. gingivalis was grown between 4 and 5 days on Fastidious Anaerobic agar (FAA) plates. Fivefold dilution in at least five steps of gallium nitrate (Ga(NO3)3) or bismuth chloride (BiCl3) was done. Bismuth salt had to be suspended in DMSO in order to enable salt to dissolve in culture media.
(§2) Equal amounts of bacterial solution and antimicrobial salt (in fivefold dilution) were mixed and incubated at 35±2° C.: MRSA, PA01, and S. sanguinis for 24 hours and P. gingivalis for […]. After incubation, the concentration where no visual growth could be detected was documented.

P. gingivalis = test: as above; type: cell-based; details: 35±2° C.
Experimental: as §1, §2

Pseudomonas aeruginosa = details: Kaneko et al. (2007); cited from earlier work
PA01 = test: Minimum Inhibitory Concentration, fivefold dilution, no visual growth; type: cell-based, Pseudomonas aeruginosa; details: PA01, 24 hours at 35±2° C.
Experimental: as §1, §2

MRSA = type: cell-based, Staphylococcus aureus; details: 24 hours at 35±2° C.
Francisella novicida = details: Olakanmi et al (2010); cited from earlier work

| SMILES | Minimum Inhibitory Concentration (MIC) (S. sanguinis) | Minimum Inhibitory Concentration (MIC) (P. gingivalis) | growth of Pseudomonas aeruginosa in batch cultures (Pseudomonas aeruginosa) | Minimum Inhibitory Concentration (MIC) (PA01) | Minimum Inhibitory Concentration (MIC) (MRSA) | growth of Francisella novicida (Francisella novicida) |
| --- | --- | --- | --- | --- | --- | --- |
| O=[N+]([O-])[O-].O=[N+]([O-])[O-].O=[N+]([O-])[O-].[Ga+3] [Ga(NO3)3, gallium nitrate] | 1000 µg/mL | 40 µg/mL | inhibits growth | 200 µg/mL | 1000 µg/mL | inhibited the growth |
| [Cl][Bi]([Cl])[Cl] [BiCl3, bismuth chloride] | 40 µg/mL | 1000 µg/mL |  |  |  |  |

From patent US20130266629A1, “MEDICAL DEVICE HAVING A SURFACE COMPRISING ANTIMICROBIAL METAL” (DENTSPLY INTERNATIONAL INC., priority 2012, published 2013)
